Structures can show the parent of a compound that is named as a salt. Where two headings read alike, the source gives them in different places.
Tests used:
[1] = XRPD analysis of solid residues collected from the water solubility assay; format: physicochemical; conditions: solids in suspension in water collected after 24 h stirring, compared to material as received
Procedure: XRPD analysis was conducted with a Bruker D8-Advance diffractometer, type: Bragg-Bentano. Source CuKα1, λ=1.5406 Å and CuKα2, λ2=1.54439 Å. Generator: 35 kV-40 mA. Detector: Lynx Eye.
The sample was analyzed using the following protocol: Around 3 mg of the test compound delivered as solid material is gently grounded to homogenize the powder and deposed on zero-diffraction Silicon sample holder. The sample holder is then placed in the X-Ray Diffractometer chamber.
The copper anode X-ray source is turned on using a generator set at 35 kV voltage and at 40 mA intensity. While X-ray beam irradiates the sample, both X-ray source and X-ray detector move on the goniometer with equal 0 angle: diffractometer in Bragg-Brentano configuration. XRPD pattern is recorded in the [2°; 40°] 2θ angle range by step of 0.040 in 20 and for 1 second at each angle step.
(§1) The target concentration tested to measure the maximum solubility of the 3 salts (phosphate, malonate and malate) and free base in 6 different media was 30 mg/ml. Solids in suspension in water solubility assays have been collected by centrifugation (15 min at 18000 rpm) after 24 h stirring for XRPD analysis. Recorded XRPD patterns have been compared to the one recorded for the salts or free base as received (see FIGS. 8-11).

[2] = Solubility of free base and salts in 6 different media (UPLC-UV); format: physicochemical; conditions: target concentration 30 mg/ml; for solubility at 24 h: thermodynamic from solid
Procedure: The following protocol has been used to prepare samples for solubility measurements at room temperature in the 6 different media. First, weigh appropriate amount of each salt and free base compound to reach the desired target concentration (30 mg/ml). Addition at room temperature the studied media to reach the selected target concentration, follow by orbital stirring at room temperature for 24 h, while protected from light. Except for the glycerin medium, separation of the soluble fraction from the non-soluble fraction is performed by centrifugation (15 min at 18000 rpm) followed by filtration on PTFE 0.45 μm membrane. For the glycerin medium, 3 steps of centrifugation (15 mw at 18000 rpm) to collect the supernatant was performed. The resulting filtrates and supernatant for glycerin medium were diluted in appropriate solvents described in the following table to be in the range of calibration curve. Quantification of the diluted and undiluted samples was performed using UPLC-UV.
A standard calibration curve (chromatographic UV peak area vs concentration) between 0.5 μg/mL and 500 μg/mL was established in DMSO according to the following protocol. First, weighing 1 mg free base, then addition of DMSO until a 1 mg/mL clear DMSO Stock solution is obtained. Next, selected compound DMSO solutions at 5 different concentrations (500 ag/mL, 250 ag/mL, 100 ag/ml, 25 μg/ml and 0.5 μg/mL) were prepared by dilution with pure DMSO.
Samples were analysed by UPLC-UV-MS according to the following: (a) Instrument: Waters Acquity H-Class with PDA and QDa detectors; (b) Column: Waters Acquity BEH C18, 1.7 m, 2.1×50 mm; (c) Flow rate: 0.65 ml/min; (d) UV detection: 220 nm, 254 nm, 290 nm; (e) Column temperature: 40° C.; (f) Injection volume: 0.4 μl; (g) Mobile phase: Gradient with solutions A and B prepared according to Table 6; (h) Ionisation mode: ESI+/ESI−; (i) Source temperature: 600° C.; (j) Capillary voltage: 0.8 kV; and (k) Cone voltage: +20V/−20V.
as §1

[3] = In vitro permeation testing in Franz cells; format: in vitro ADME; conditions: human abdominal skin, Franz cell
Procedure: In vitro permeation testing was performed using human abdominal skin from 3 donors and 2 samples per donor with a thickness of 400 μm (±100 μm). The samples were used in Franz cell 2 cm^2 of diameter and a receptor volume of 3 mL (PBS+4% BSA (Bovine Serum Albumin).
The receptor compartment was surrounded by a water jacket heated to 37° C.±1° C. insuring a skin surface temperature of 32° C.±1° C. The receptor compartment is separated from the donor compartment by the skin membrane where the epidermis side faces the donor. Receptor compartments containing magnetic stirrer bar, were filled with the receptor fluid in such a way to prevent any formation of air-bubbles. During the diffusion experiment, receptor fluids were continuously stirred in order to ensure homogenization.
Abdominal skins from aesthetic surgery were used in this study. Skins, upon arrival, were separated from hypodermis with the help of tweezers and a scalpel blade. Skins were gently washed and stored flat in aluminum foil for freezing at −20° C. At the day of experiment, skins were thawed then cut in smaller pieces to fit with diffusion cell geometry. In this experiment three donors were used. Skin specimens were mounted onto Franz diffusion cells with PBS+4% Bovine Serum Albumin as a receptor fluid. […]
Following at least 45 min equilibrium with receptor fluid, skin integrity is assessed by Transepidermal Water Loss (TEWL) measurements. […] TEWL is again measured and cells still depicting a high water flux are recorded. […] Individual TEWL values for each skin specimen used, room temperature and relative humidity were also recorded.
Test Items were applied at a dose of 5 mg/cm^2 for 24 hours on the skin samples in the Franz cell. At the end of exposure, the following samples were recovered: Stratum corneum (not analysed), epidermis, dermis and receptor fluid were collected analysed for API content.
The samples were analyzed following LC/MS/MS method internally certified. […] Percutaneous fluxes were calculated as the ratio of permeated amounts in receptor fluid (RF) of each individual cell to the duration of exposure (24 h).

[4] = Glycerin/Water 5/95 (v/v), room temperature, 24 h
[5] = Glycerin/Water 10/90 (v/v), room temperature, 24 h
[6] = Glycerin/Water 20/80 (v/v), room temperature, 24 h
[7] = Transcutol/Water 10/90 (v/v), room temperature, 24 h
[8] = glycerin, room temperature, 24 h
[9] = water, orbital stirring at room temperature for 24 h
[10] = Glycerin/Water 5/95 (v/v), aqueous with cosolvent or surfactant or cyclodextrin, Glycerin/Water 5/95 (v/v), room temperature, 24 h, read-out: Solubility, Glycerin/Water 5/95 (v/v)
[11] = Glycerin/Water 10/90 (v/v), aqueous with cosolvent or surfactant or cyclodextrin, Glycerin/Water 10/90 (v/v), room temperature, 24 h, read-out: Solubility, Glycerin/Water 10/90 (v/v)
[12] = Glycerin/Water 20/80 (v/v), aqueous with cosolvent or surfactant or cyclodextrin, Glycerin/Water 20/80 (v/v), room temperature, 24 h, read-out: Solubility, Glycerin/Water 20/80 (v/v)
[13] = Transcutol/Water 10/90 (v/v), aqueous with cosolvent or surfactant or cyclodextrin, Transcutol/Water 10/90 (v/v), room temperature, 24 h, read-out: Solubility, Transcutol/Water 10/90 (v/v)
[14] = glycerin, organic solvent or mixture, glycerin, room temperature, 24 h, read-out: Solubility, Glycerin
[15] = water, water, orbital stirring at room temperature for 24 h, read-out: Solubility, Water
[16] = 5 mg/cm^2 for 24 hours, 0.63 w/w % phosphate salt vs 0.5 w/w % free base

CC(C)CC(C)n1nc(-c2ccc3oc(N)nc3c2)c2c(N)nc(N)nc21 (stereo not shown) [Free Base, 3-(2-Amino-1,3-benzoxazol-5-yl)-1-(1,3-dimethylbutyl)pyrazolo[3,4-d]pyrimidine-4,6-diamine]
XRPD of solid residues in water [1]: No crystalline phase conversion
Solubility, Glycerin/Water 5/95 (v/v) [2, 4]: 29 µg/mL
Solubility, Glycerin/Water 10/90 (v/v) [2, 5]: 45 µg/mL
Solubility, Glycerin/Water 20/80 (v/v) [2, 6]: 71 µg/mL
Solubility, Transcutol/Water 10/90 (v/v) [2, 7]: 256 µg/mL
Solubility, Glycerin [2, 8]: 6400 ± 300 µg/mL
Solubility, Water [2, 9]: 180 µg/mL

CC(C)CC(C)n1nc(-c2ccc3oc(N)nc3c2)c2c(N)nc(N)nc21.O=C(O)C[C@H](O)C(=O)O (stereo not shown) [Malate Salt]
XRPD of solid residues in water [1]: No crystalline phase conversion
solubility at 24 h [2, 10]: 2100 ± 300 µg/mL
solubility at 24 h [2, 11]: 2200 ± 200 µg/mL
solubility at 24 h [2, 12]: 2900 ± 200 µg/mL
solubility at 24 h [2, 13]: 3100 ± 300 µg/mL
solubility at 24 h [2, 14]: 21100 ± 200 µg/mL
solubility at 24 h [2, 15]: 1600 µg/mL

CC(C)CC(C)n1nc(-c2ccc3oc(N)nc3c2)c2c(N)nc(N)nc21.O=C(O)CC(=O)O (stereo not shown) [Malonate Salt]
XRPD of solid residues in water [1]: Crystalline Phase conversion
solubility at 24 h [2, 10]: 2700 ± 200 µg/mL
solubility at 24 h [2, 11]: 2900 ± 200 µg/mL
solubility at 24 h [2, 12]: 3500 ± 200 µg/mL
solubility at 24 h [2, 13]: 3700 ± 200 µg/mL
solubility at 24 h [2, 14]: 24700 ± 300 µg/mL
solubility at 24 h [2, 15]: 2200 µg/mL

CC(C)CC(C)n1nc(-c2ccc3oc(N)nc3c2)c2c(N)nc(N)nc21 (stereo not shown) [Phosphate Salt]
ratio of percutaneous flux over dermis concentration, phosphate salt compared to free base [3, 16]: over 600 times
skin permeability coefficient (Kp), phosphate salt relative to free base [3, 16]: 3 times
permeability of formulation compared to free base formulation ([3]; 24 hours, 10% w/w propylene glycol of the free base formulation replaced with water): superior permeability
XRPD of solid residues in water [1]: No crystalline phase conversion
Solubility, Glycerin/Water 5/95 (v/v) [2, 4]: 4300 ± 200 µg/mL
Solubility, Glycerin/Water 10/90 (v/v) [2, 5]: 4700 ± 200 µg/mL
Solubility, Glycerin/Water 20/80 (v/v) [2, 6]: 5700 ± 200 µg/mL
Solubility, Transcutol/Water 10/90 (v/v) [2, 7]: 5500 ± 200 µg/mL
Solubility, Glycerin [2, 8]: 15800 ± 300 µg/mL
Solubility, Water [2, 9]: 3900 ± 200 µg/mL

Source: patent US20250042908A1, “SALTS FOR MTOR COMPOUNDS” (GALDERMA HOLDING S.A., priority 2022, published 2025)
